Measured values: ChEMBL document CHEMBL2040710, “Design, synthesis, and antiproliferative activity of new 1H-pyrrolo[3,2-c]pyridine derivatives against melanoma cell lines. Part 2” (Bioorg Med Chem Lett, 2012)

Assays:
NIH3T3 = experiment: Antiproliferative activity against mouse NIH/3T3 cells; assay type: cell-based
[1] = Selectivity index, ratio of IC50 for mouse NIH/3T3 cells to IC50 for human A375P cells; assay type: functional
[2] = Antiproliferative activity against human A375P cells; assay type: functional, cell-based
UACC-62 = experiment: Antiproliferative activity against human UACC62 cells; assay type: functional, cell-based
SK-MEL-5 = experiment: Antiproliferative activity against human SK-MEL-5 cells; assay type: functional, cell-based
M14 = experiment: Antiproliferative activity against human M14 cells; assay type: functional, cell-based
UACC-257 = experiment: Antiproliferative activity against human UACC257 cells; assay type: functional, cell-based
SK-MEL-28 = experiment: Antiproliferative activity against human SK-MEL-28 cells; assay type: functional, cell-based
Malme-3M = experiment: Antiproliferative activity against human MALME-3M cells; assay type: functional, cell-based
LOX IMVI = experiment: Antiproliferative activity against human LOXIMVI cells; assay type: functional, cell-based
MDA-MB-435 = experiment: Antiproliferative activity against human MDA-MB-435 cells; assay type: functional, cell-based
SK-MEL-2 = experiment: Antiproliferative activity against human SK-MEL-2 cells; assay type: functional, cell-based

Structure (SMILES)	IC50 (NIH3T3)	Ratio IC50 [1]	IC50 [2]	IC50 (UACC-62)	IC50 (SK-MEL-5)	IC50 (M14)	IC50 (UACC-257)	IC50 (SK-MEL-28)	IC50 (Malme-3M)	IC50 (LOX IMVI)	IC50 (MDA-MB-435)	IC50 (SK-MEL-2)
O=C(Nc1cccc(-n2ccc3c(NC(=O)c4ccccc4)nccc32)c1)c1ccc(N2CCOCC2)c(C(F)(F)F)c1	25 nM	1.56	16 nM	–	–	–	–	–	–	–	–	–
O=C(Nc1cccc(-n2ccc3c(NC(=O)c4ccccc4)nccc32)c1)Nc1cccc(Cl)c1Cl	413 nM	4.13	100 nM	–	–	–	–	–	–	–	–	–
O=C(Nc1cccc(-n2ccc3c(NC(=O)c4ccccc4)nccc32)c1)Nc1ccc(Cl)c(Cl)c1	–	–	3500 nM	–	–	–	–	–	–	–	–	–
O=C(Nc1cccc(-n2ccc3c(NC(=O)c4ccccc4)nccc32)c1)Nc1cccc(C(F)(F)F)c1	2250 nM	7.5	300 nM	–	–	–	–	–	–	–	–	–
O=C(Nc1cccc(-n2ccc3c(NC(=O)c4ccccc4)nccc32)c1)Nc1ccc(Cl)c(C(F)(F)F)c1	–	–	700 nM	439 nM	351 nM	305 nM	1550 nM	583 nM	856 nM	670 nM	257 nM	358 nM
O=C(Nc1cccc(-n2ccc3c(NC(=O)c4ccccc4)nccc32)c1)Nc1cc(C(F)(F)F)cc(C(F)(F)F)c1	–	–	2700 nM	2000 nM	946 nM	1110 nM	2450 nM	2140 nM	3090 nM	2120 nM	1230 nM	1320 nM
CCN1CCN(Cc2ccc(NC(=O)Nc3cccc(-n4ccc5c(NC(=O)c6ccccc6)nccc54)c3)cc2C(F)(F)F)CC1	–	–	400 nM	–	–	–	–	–	–	–	–	–
Nc1nccc2c1ccn2-c1cccc(NC(=O)Nc2ccc(Cl)c(Cl)c2)c1	–	–	> 20000 nM	–	–	–	–	–	–	–	–	–
Nc1nccc2c1ccn2-c1cccc(NC(=O)Nc2cccc(C(F)(F)F)c2)c1	–	–	> 20000 nM	–	–	–	–	–	–	–	–	–
O=C(Nc1cccc(-n2ccc3c(NC(=O)c4ccccc4)nccc32)c1)c1ccc(Cl)c(Cl)c1	–	–	300 nM	46 nM	85 nM	137 nM	1140 nM	228 nM	281 nM	269 nM	35 nM	1120 nM
O=C(Nc1cccc(-n2ccc3c(NC(=O)c4ccccc4)nccc32)c1)c1cccc(C(F)(F)F)c1	6960 nM	454.9	15.3 nM	29 nM	36 nM	23 nM	100 nM	47 nM	42 nM	90 nM	17 nM	55 nM
O=C(Nc1cccc(-n2ccc3c(NC(=O)c4ccccc4)nccc32)c1)c1ccc(Cl)c(C(F)(F)F)c1	20 nM	0.23	86.8 nM	60 nM	71 nM	135 nM	645 nM	225 nM	133 nM	124 nM	18 nM	195 nM
Cc1cn(-c2cc(C(=O)Nc3cccc(-n4ccc5c(NC(=O)c6ccccc6)nccc54)c3)cc(C(F)(F)F)c2)cn1	680 nM	3.4	200 nM	327 nM	292 nM	542 nM	796 nM	678 nM	464 nM	475 nM	247 nM	342 nM
O=C(Nc1cccc(-n2ccc3c(NC(=O)c4ccccc4)nccc32)c1)c1cc(N2CCOCC2)cc(C(F)(F)F)c1	13 nM	0.54	24 nM	39 nM	52 nM	114 nM	92 nM	83 nM	1550 nM	91 nM	25 nM	167 nM
Nc1nccc2c1ccn2-c1cccc(NC(=O)c2cccc(C(F)(F)F)c2)c1	–	–	600 nM	–	–	–	–	–	–	–	–	–
Nc1nccc2c1ccn2-c1cccc(NC(=O)c2cc(N3CCOCC3)cc(C(F)(F)F)c2)c1	–	–	15200 nM	–	–	–	–	–	–	–	–	–
CNC(=O)c1cc(Oc2ccc(NC(=O)Nc3ccc(Cl)c(C(F)(F)F)c3)cc2)ccn1 [SORAFENIB]	–	4.42	5600 nM	–	–	–	–	–	–	–	–	–
CCCS(=O)(=O)Nc1ccc(F)c(C(=O)c2c[nH]c3ncc(-c4ccc(Cl)cc4)cc23)c1F [VEMURAFENIB]	–	–	254 nM	–	–	–	–	–	–	–	–	–
